Assay results from publication PMC3856494, “Radiofluorination and biological evaluation of N-aryl-oxadiazolyl-propionamides as potential radioligands for PET imaging of cannabinoid CB2 receptors” (Organic and Medicinal Chemistry Letters, 2013).

Experiments:
[1] = In vitro radiochemical stability; format: physicochemical; conditions: all selected media, 40°C, up to 90 min
Protocol: In vitro radiochemical stabilities of [^18F]1 and [^18F]2 were investigated in 0.9% NaCl solution, Dulbecco’s phosphate buffer, 0.01 M Tris–HCl (pH 7.4 at 21°C), and EtOH at 40°C for 90 min. Samples were taken at 15, 30, 60, and 90 min after incubation and analyzed by radio-TLC and radio-HPLC.

[2] = Ex vivo biodistribution (organ distribution) in mice; conditions: i.v. 300 to 400 kBq, female CD1 mice
Protocol: (§1) Female CD1 mice (10 to 12 weeks old, 20 to 25 g) received an injection of 300 to 400 kBq of [^18F]1 or [^18F]2 with specific activities of >450 GBq/μmol in 200 μL of 0.9% NaCl/10% EtOH into the tail vein. The animals were anesthetized (CO2/O2 mixture) for blood and urine sampling and euthanized by luxation of the cervical spine at 5, 30, and 60 min after injection (p.i.) (n = 2 to 5 per time). The organs of interest were removed and weighed, and the activities were measured by γ counting using a calibrated γ counter Wallac Wizard 1470 (Perkin Elmer Inc., Waltham, MA, USA). The percentage of injected dose per gram of wet tissue (% ID/g wet weight) was calculated.

CB2R = CB2R (Mus musculus, UniProt P47936); design: species or system female CD1 mice; conditions: female, CD1, mouse, in vivo
CB2R, sequence (P47936 whole entry): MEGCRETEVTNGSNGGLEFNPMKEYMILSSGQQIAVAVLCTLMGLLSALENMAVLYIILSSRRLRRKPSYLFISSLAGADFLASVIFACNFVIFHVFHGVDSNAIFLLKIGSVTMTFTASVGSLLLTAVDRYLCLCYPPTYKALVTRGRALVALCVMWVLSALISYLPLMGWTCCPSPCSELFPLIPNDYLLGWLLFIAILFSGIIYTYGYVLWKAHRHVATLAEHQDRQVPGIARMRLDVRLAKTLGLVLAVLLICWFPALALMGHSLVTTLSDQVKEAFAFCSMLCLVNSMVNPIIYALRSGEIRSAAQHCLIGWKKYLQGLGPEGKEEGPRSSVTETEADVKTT
Protocol: as §1
(3 mg/kg i.p. in 0.9% saline, 10 min before the injection of the radiotracer) at 60 min p.i. (n = 2 to 5). The unpaired two-tailed t test was used to compare the results between the groups. We considered differences to be significant at a p value <0.05.

[3] = Ex vivo metabolite studies (radio-HPLC of plasma and brain extracts); format: in vivo, CD1 mice; conditions: mice
Protocol: [^18F]1 and [^18F]2 (100 to 150 MBq, 250 to 450 GBq/μmol in 150 μL NaCl 0.9%/10% EtOH) were injected via the tail vein in CD1 male mice (10 to 12 weeks old, 20 to 25 g). Blood and urine samples were obtained at 30 and 60 min p.i. (n = 3 per time point). Twofold extractions of plasma and brain samples (n = 3) were performed using ice-cold MeCN according to the standard protocol established in our group (see [47, 48]). Briefly, plasma samples were obtained by centrifugation of the blood at 4,000×g at 4°C for 10 min, and brain samples were homogenized in ice-cold 50 mM Tris–HCl (pH = 7.4). The samples were vortexed, incubated on ice, and centrifuged at 10,000×g for 3 min. Supernatants were collected, and the precipitates were re-dissolved in ice-cold MeCN for the second extraction. The supernatants from the two extractions were combined, concentrated under a gentle argon stream at 65°C, and analyzed by radio-TLC and gradient analytical HPLC (see ‘Radiochemistry’ section). Aliquots from each extraction supernatant and the precipitates were also taken and quantified by γ counting (Wallac Wizard 1470, Perkin Elmer Inc., Waltham, MA, USA) along with the respective aliquots of intact plasma samples and brain homogenates. A moderate recovery of radioactivity was obtained from plasma samples and brain homogenates (60% to 70%). Radiometabolites of [^18F]17 in the plasma, spleen, and brain were assessed at 30 and 60 min p.i.

CCn1c2ccccc2c2cc(NC(=O)CCc3nc(-c4ccc([18F])cc4Br)no3)ccc21 [[^18F]2]
intact tracer [1]: ≥ 98% | Radioactivity uptake, Adrenals, Control 5 min [2]: 7.67 ± 2.18 % ID/g | Radioactivity uptake, Adrenals, Control 30 min [2]: 5.38 ± 0.61 % ID/g | Radioactivity uptake, Adrenals, Control 60 min [2]: 2.44 ± 0.72 % ID/g | Radioactivity uptake, Bladder, Control 5 min [2]: 1.01 ± 0.29 % ID/g | Radioactivity uptake, Bladder, Control 30 min [2]: 2.02 ± 0.39 % ID/g | Radioactivity uptake, Bladder, Control 60 min [2]: 1.45 ± 0.57 % ID/g | Radioactivity uptake, Blood, Control 5 min [2]: 2.29 ± 0.48 % ID/g | Radioactivity uptake, Blood, Control 30 min [2]: 3.42 ± 0.39 % ID/g | Radioactivity uptake, Blood, Control 60 min [2]: 2.50 ± 0.42 % ID/g | Radioactivity uptake, Brain, Control 5 min [2]: 0.62 ± 0.22 % ID/g | Radioactivity uptake, Brain, Control 30 min [2]: 0.86 ± 0.34 % ID/g | Radioactivity uptake, Brain, Control 60 min [2]: 0.26 ± 0.07 % ID/g | Radioactivity uptake, Femur, Control 5 min [2]: 1.63 ± 0.93 % ID/g | Radioactivity uptake, Femur, Control 30 min [2]: 1.10 ± 0.03 % ID/g | Radioactivity uptake, Femur, Control 60 min [2]: 0.58 ± 0.11 % ID/g | Radioactivity uptake, Gonads, Control 5 min [2]: 1.14 ± 0.32 % ID/g | Radioactivity uptake, Gonads, Control 30 min [2]: 2.08 ± 0.03 % ID/g | Radioactivity uptake, Gonads, Control 60 min [2]: 2.29 ± 0.57 % ID/g | Radioactivity uptake, Heart, Control 5 min [2]: 3.42 ± 0.57 % ID/g | Radioactivity uptake, Heart, Control 30 min [2]: 2.32 ± 0.24 % ID/g | Radioactivity uptake, Heart, Control 60 min [2]: 1.45 ± 0.20 % ID/g | Radioactivity uptake, Kidney, Control 5 min [2]: 5.86 ± 0.96 % ID/g | Radioactivity uptake, Kidney, Control 30 min [2]: 5.90 ± 0.15 % ID/g | Radioactivity uptake, Kidney, Control 60 min [2]: 3.96 ± 1.25 % ID/g | Radioactivity uptake, Large intestine, Control 5 min [2]: 0.46 ± 0.06 % ID/g | Radioactivity uptake, Large intestine, Control 30 min [2]: 1.25 ± 0.30 % ID/g | Radioactivity uptake, Large intestine, Control 60 min [2]: 1.86 ± 0.36 % ID/g | Radioactivity uptake, Liver, Control 5 min [2]: 31.31 ± 9.91 % ID/g | Radioactivity uptake, Liver, Control 30 min [2]: 8.84 ± 0.83 % ID/g | Radioactivity uptake, Liver, Control 60 min [2]: 6.27 ± 0.68 % ID/g | Radioactivity uptake, Lung, Control 5 min [2]: 4.62 ± 0.21 % ID/g | Radioactivity uptake, Lung, Control 30 min [2]: 3.36 ± 0.02 % ID/g | Radioactivity uptake, Lung, Control 60 min [2]: 2.52 ± 0.60 % ID/g | Radioactivity uptake, Muscle, Control 5 min [2]: 1.00 ± 0.30 % ID/g | Radioactivity uptake, Muscle, Control 30 min [2]: 0.92 ± 0.15 % ID/g | Radioactivity uptake, Muscle, Control 60 min [2]: 0.70 ± 0.27 % ID/g | Radioactivity uptake, Pancreas, Control 5 min [2]: 2.04 ± 0.59 % ID/g | Radioactivity uptake, Pancreas, Control 30 min [2]: 1.71 ± 0.15 % ID/g | Radioactivity uptake, Pancreas, Control 60 min [2]: 0.82 ± 0.21 % ID/g | Radioactivity uptake, Plasma, Control 5 min [2]: 3.87 ± 0.90 % ID/g | Radioactivity uptake, Plasma, Control 30 min [2]: 6.82 ± 1.19 % ID/g | Radioactivity uptake, Plasma, Control 60 min [2]: 5.22 ± 0.73 % ID/g | Radioactivity uptake, Small intestine, Control 5 min [2]: 3.86 ± 2.64 % ID/g | Radioactivity uptake, Small intestine, Control 30 min [2]: 20.78 ± 3.28 % ID/g | Radioactivity uptake, Small intestine, Control 60 min [2]: 27.31 ± 2.44 % ID/g | Radioactivity uptake, Spleen, Control 5 min [2]: 10.42 ± 7.67 % ID/g | Radioactivity uptake, Spleen, Control 30 min [2]: 1.34 ± 0.10 % ID/g | Radioactivity uptake, Spleen, Control 60 min [2]: 0.68 ± 0.11 % ID/g | Radioactivity uptake, Stomach, Control 5 min [2]: 1.57 ± 1.18 % ID/g | Radioactivity uptake, Stomach, Control 30 min [2]: 2.09 ± 0.81 % ID/g | Radioactivity uptake, Stomach, Control 60 min [2]: 2.21 ± 0.43 % ID/g | Radioactivity uptake, Thymus, Control 5 min [2]: 2.30 ± 1.06 % ID/g | Radioactivity uptake, Thymus, Control 30 min [2]: 1.96 ± 0.22 % ID/g | Radioactivity uptake, Thymus, Control 60 min [2]: 1.04 ± 0.08 % ID/g | Radioactivity uptake, Adrenals, Blocking 60 min (CB2R; 3 mg/kg, 1 h): 3.34 ± 0.15 % ID/g | Radioactivity uptake, Bladder, Blocking 60 min (CB2R; 3 mg/kg, 1 h): 1.77 ± 0.16 % ID/g | Radioactivity uptake, Blood, Blocking 60 min (CB2R; 3 mg/kg, 1 h): 3.40 ± 0.21 % ID/g | Radioactivity uptake, Brain, Blocking 60 min (CB2R; 3 mg/kg, 1 h): 0.28 ± 0.03 % ID/g | Radioactivity uptake, Femur, Blocking 60 min (CB2R; 3 mg/kg, 1 h): 0.61 ± 0.09 % ID/g | Radioactivity uptake, Gonads, Blocking 60 min (CB2R; 3 mg/kg, 1 h): 1.97 ± 0.39 % ID/g | Radioactivity uptake, Heart, Blocking 60 min (CB2R; 3 mg/kg, 1 h): 1.53 ± 0.13 % ID/g | Radioactivity uptake, Kidney, Blocking 60 min (CB2R; 3 mg/kg, 1 h): 4.91 ± 1.51 % ID/g | Radioactivity uptake, Large intestine, Blocking 60 min (CB2R; 3 mg/kg, 1 h): 1.78 ± 0.23 % ID/g | Radioactivity uptake, Liver, Blocking 60 min (CB2R; 3 mg/kg, 1 h): 10.51 ± 1.10 % ID/g | Radioactivity uptake, Lung, Blocking 60 min (CB2R; 3 mg/kg, 1 h): 2.31 ± 0.19 % ID/g | Radioactivity uptake, Muscle, Blocking 60 min (CB2R; 3 mg/kg, 1 h): 0.70 ± 0.06 % ID/g | Radioactivity uptake, Pancreas, Blocking 60 min (CB2R; 3 mg/kg, 1 h): 1.02 ± 0.11 % ID/g | Radioactivity uptake, Plasma, Blocking 60 min (CB2R; 3 mg/kg, 1 h): 5.78 ± 0.07 % ID/g | Radioactivity uptake, Small intestine, Blocking 60 min (CB2R; 3 mg/kg, 1 h): 29.64 ± 5.10 % ID/g | Radioactivity uptake, Spleen, Blocking 60 min (CB2R; 3 mg/kg, 1 h): 0.74 ± 0.10 % ID/g | Radioactivity uptake, Stomach, Blocking 60 min (CB2R; 3 mg/kg, 1 h): 3.24 ± 2.10 % ID/g | Radioactivity uptake, Thymus, Blocking 60 min (CB2R; 3 mg/kg, 1 h): 1.77 ± 0.14 % ID/g | % control, Adrenals (CB2R; 60 min): 137 % control | % control, Bladder (CB2R; 60 min): 122 % control | % control, Blood (CB2R; 60 min): 136 % control | % control, Brain (CB2R; 60 min): 108 % control | % control, Femur (CB2R; 60 min): 106 % control | % control, Gonads (CB2R; 60 min): 86 % control | % control, Heart (CB2R; 60 min): 106 % control | % control, Kidney (CB2R; 60 min): 124 % control | % control, L. intestine (CB2R; 60 min): 96 % control | % control, Liver (CB2R; 60 min): 168 % control | % control, Lung (CB2R; 60 min): 92 % control | % control, Muscle (CB2R; 60 min): 99 % control | % control, Pancreas (CB2R; 60 min): 125 % control | % control, Plasma (CB2R; 60 min): 111 % control | % control, S. intestine (CB2R; 60 min): 109 % control | % control, Spleen (CB2R; 60 min): 110 % control | % control, Stomach (CB2R; 60 min): 146 % control | % control, Thymus (CB2R; 60 min): 171 % control | Percentage of total activity in brain samples, 30 min p.i. ([3]; brain homogenate extract, 30 min p.i. of [18F]1 or [18F]2, radio-HPLC): 88% | Percentage of total activity in brain samples, 60 min p.i. ([3]; brain homogenate extract, 60 min p.i. of [18F]1 or [18F]2, radio-HPLC): 43% | Relative percentage of intact tracer and radiometabolites, Plasma 30 min p.i. ([3]; plasma, 30 min p.i. of [18F]1 or [18F]2, radio-HPLC): 2% | Relative percentage of intact tracer and radiometabolites, Plasma 60 min p.i. ([3]; plasma, 60 min p.i. of [18F]1 or [18F]2, radio-HPLC): 2%
